Measured values published in patent US20080293781A1, “Salicylic Acid Derivatives” (priority 2005, published 2008).
Like-named read-outs stand apart in the source and are kept apart here.

How the values were obtained:
[1] = target: T1, cyclooxygenase type-1 (COX1) (Mus musculus, UniProt P22437); experiment: Inhibition of COX1 activity (PGE2 release) in resting RAW 264.7 macrophages; type: cell-based; details: for Type of inhibition “Irreversibile”: 30 min exposure, substrate applied directly or after extensive washing, difference less than 5% = irreversible
T1 construct: cyclooxygenase type-1 (COX1) activity was estimated in resting RAW 264.7 macrophages; endogenous in cells; host or cells: RAW 264.7 macrophages (resting)
T1 sequence (P22437 27-602): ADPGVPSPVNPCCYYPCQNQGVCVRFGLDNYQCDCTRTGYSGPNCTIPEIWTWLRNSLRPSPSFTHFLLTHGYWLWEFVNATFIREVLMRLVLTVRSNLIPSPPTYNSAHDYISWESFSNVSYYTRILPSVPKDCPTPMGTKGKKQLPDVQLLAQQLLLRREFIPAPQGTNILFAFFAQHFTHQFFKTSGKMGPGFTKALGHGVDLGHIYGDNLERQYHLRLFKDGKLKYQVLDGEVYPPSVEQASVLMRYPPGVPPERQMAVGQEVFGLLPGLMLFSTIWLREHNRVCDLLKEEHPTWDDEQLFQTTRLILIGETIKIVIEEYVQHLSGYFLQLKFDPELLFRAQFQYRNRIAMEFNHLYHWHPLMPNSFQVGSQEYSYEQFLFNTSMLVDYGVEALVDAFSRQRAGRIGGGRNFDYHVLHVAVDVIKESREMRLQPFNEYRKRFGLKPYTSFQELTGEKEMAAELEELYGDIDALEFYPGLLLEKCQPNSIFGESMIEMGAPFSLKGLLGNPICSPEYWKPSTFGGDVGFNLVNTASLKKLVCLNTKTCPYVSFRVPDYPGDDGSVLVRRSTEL
Protocol: The extent and type of inhibitory effects of this class of compounds on cyclooxygenase type-1 (COX1) activity was estimated in resting RAW 264.7 macrophages.
The type of inhibition (irreversible vs. reversible) was determined in resting conditions by exposing the cells to the test compounds for 30 min followed by the application of the substrate either directly or after extensive washing and then incubated for additional 15 min. The presence of residual activity (difference less than 5% vs. that recorded without washing) was taken as index of the irreversible nature of the inhibitory effects of the compounds.

[2] = target: T2, cyclooxygenase type-2 (COX2) (Mus musculus, UniProt Q05769); experiment: Inhibition of COX2 activity (PGE2 formation) in LPS/IFNγ-induced RAW 264.7 macrophages; details: RAW264.7, read-out: COX2 inhibition %
T2 sequence (Q05769 18-604): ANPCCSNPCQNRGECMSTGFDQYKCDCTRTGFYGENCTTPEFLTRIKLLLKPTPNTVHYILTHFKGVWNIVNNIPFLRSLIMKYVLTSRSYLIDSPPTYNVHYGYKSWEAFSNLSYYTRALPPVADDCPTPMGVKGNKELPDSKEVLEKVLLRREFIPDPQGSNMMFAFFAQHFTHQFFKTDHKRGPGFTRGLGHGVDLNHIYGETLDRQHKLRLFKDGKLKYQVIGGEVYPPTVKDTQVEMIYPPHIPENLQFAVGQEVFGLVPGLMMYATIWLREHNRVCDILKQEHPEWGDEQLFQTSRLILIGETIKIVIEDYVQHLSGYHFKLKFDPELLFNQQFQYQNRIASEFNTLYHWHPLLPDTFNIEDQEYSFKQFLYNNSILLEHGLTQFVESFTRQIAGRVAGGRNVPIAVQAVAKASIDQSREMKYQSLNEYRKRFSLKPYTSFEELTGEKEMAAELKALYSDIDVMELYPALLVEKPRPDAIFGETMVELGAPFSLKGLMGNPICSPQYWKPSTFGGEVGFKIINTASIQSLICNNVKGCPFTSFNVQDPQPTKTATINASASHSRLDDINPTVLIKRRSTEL
Protocol: The inhibitory activity on COX2 was, instead, analyzed following the induction of this protein with 1 μg/mL of the bacterial endotoxin, lipopolysaccharide (LPS) and 10 ng/mL of interferon-γ (IFNγ) that were applied for 16 h to RAW 264.7 macrophages previously treated with 100 μM of the irreversible blocker, aspirin (ASA). Arachidonic acid served as substrate for the enzyme and the extent of PGE2 formation taken as index of COX2 activity.

[3] = tested on: Male Wistar rats (glandular mucosa of the stomach); experiment: Gastrolesive activity: gastric mucosal lesion index in rats; type: in vivo; details: rat, aspirin 120 mg/kg intragastric or equimolar doses, 3 hours after treatment, mean ± SEM
Protocol: Male Wistar rats, […] (Harlan, S. Pietro al Natisone, Italy) were individually housed in hanging stainless-steel cages with grid floors, at constant room temperature (25±1° C.) and humidity (60±5%), with an artificial 12:12 h light/dark cycle. They were deprived of food but not of water 24 h before the experiments. Groups of rats (n=8-10) were given aspirin (Acetylsalicylic acid) 120 mg/kg by intragastric route or equimolar doses of the compounds under study. Rats were sacrificed 3 hours after the administration of the compounds. Immediately after the sacrifice, the stomachs were removed, opened along the lesser curvature and examined for the assessment of mucosal lesions, the stomachs were laid on a flat surface under a stereomicroscope. The glandular mucosa was examined and each individual hemorrhagic lesion was measured along its greatest length (<1 mm: rating=1; 1-2 mm: rating=2; >2 mm: rating according to their greatest length). The lengths of the lesions were summed to give an overall total, designated as the lesion index, for each stomach. Statistical analysis was performed with ANOVA followed by Newman Keuls test.

[4] = tested on: rats (carrageenan paw edema); experiment: Anti-inflammatory activity: carrageenan-induced paw edema in conscious rats; type: in vivo; design: concentration or dose not given beside the values; details: rat, intragastric, paw volume 3 hours after carrageenan, mean ± SEM
Protocol: Paw edema was induced in conscious rats by subplantar injection of carrageenan (0.1 ml of 1% carrageenan suspension in carboxymethylcellulose 1%). Immediately after carrageenan injection, compounds or vehicle (CMC, 1%) were administered intragastrically to different groups of rats in a volume of 10 ml/kg. Paw volume was measured with a plethysmometer (Basile, Comerio, Italy) immediately before carrageenan injection and 3 hours afterwards. Paw edema was determined in each rat by subtracting the initial volume displacement (pre-drug) from the subsequent post-carrageenan measurement. Edema was expressed as the percent increase in paw volume relative to the preinjection value for each animal. Statistical analysis was performed with ANOVA followed by Newman Keuls test.

[5] = Hydrolysis in human serum; type: in vitro ADME; details: 37°C, RP-HPLC, half-life of hydrolysis, read-out: Uman Serum stability (t1/2 h) (converted)
Protocol: A solution of each compound (10 mM) in acetonitrile was added to human serum (Sigma) preheated at 37° C., the final concentration of the compound was 250 μM. Resulting solution was incubated at 37±0.5° C. and at appropriate time intervals 500 μL of reaction mixture was withdrawn and added to 750 μL of acetonitrile containing 0.1% trifluoroacetic acid in order to deproteinize the serum. Sample was sonicated, vortexed and then centrifuged for 10′ at 2150 g, The clear supernatant was filtered by 0.45 μm PTFE filters (Alltech) and analysed by RP-HPLC.
(§1) The reverse-phase HPLC procedure allowed separation and quantitation of remaining salicylic ester and of salicylic acid.
(§2) HPLC analyses were performed with a HP 1100 chromatograph system (Agilent Technologies, Palo Alto, Calif., USA) equipped with a quaternary pump (model G1311A), a membrane degasser (G1379A), a diode-array detector (DAD) (model G1315B) integrated in the HP1100 system. Data analysis was done using a HP ChemStation system (Agilent Technologies). The analytical column was a Nucleosil 100-5C18 Nautilus (250×4.6 mm, 5 μm particle size) (Macherey-Nagel). The mobile phase consisting of acetonitrile/water (55/45) with 0.1% trifluoroacetic acid and the flow-rate was 1.2 mL/min. The injection volume was 20 μL (Rheodyne, Cotati, Calif.). The column effluent was monitored at 226 nm (for salicylic esters) and 240 nm (for salicylic acid) referenced against a 600 nm wavelength. Quantitation was done by comparison of peak areas with standards chromatographed under the same conditions.
(§3) The hydrolysis of all esters followed first-order kinetics; the observed pseudo-first-order rate constants (kobs) for the hydrolysis were calculated from the slopes of linear plots of the natural logarithm of percent remaining salicylic ester against time and the corresponding half-lives (t1/2) were obtained from: […]

[6] = Hydrolysis in acidic medium (pH 1); type: physicochemical; details: HCl 0.1M, 250 μM, 37°C
Protocol: A solution of each compound (10 mM) in acetonitrile was added to a HCl 0.1M preheated at 37° C., the final concentration of the compound was 250 μM. Resulting solution was maintained at 37±0.5° C. and at appropriate time intervals a 20 μL aliquote of reaction solution was analysed by RP-HPLC.
as §1, §2, §3

[7] = 10 μM, resting RAW 264.7 macrophages, arachidonic acid 1 μM
[8] = 30 μM, resting RAW 264.7 macrophages, arachidonic acid 1 μM
[9] = RAW264.7, read-out: COX1 inhibition %

SMILES | melting point | half-life at 250 μM [5] | pH 1 stability (% after 3 h) [6] | COX1 inhibition % [1, 7] | COX1 inhibition % [1, 8] | Type of inhibition “Irreversibile” [1] | inhibition at 1 µM [2] | inhibition at 10 µM [2] | inhibition at 30 µM [2] | Gastrotoxicity Lesion index (mm) [3] | Anti inflammatory activity Paw edema (% increase) [4] | also measured
O=C(Cc1ccc(OCC(CO[N+](=O)[O-])O[N+](=O)[O-])cc1)Oc1ccccc1C(=O)O (centres unmarked) | 94.5 to 95 °C | – | – | – | – | – | – | – | – | – | – | –
O=C(CCCO[N+](=O)[O-])Oc1ccccc1C(=O)O [(2), 2-{[4-(nitrooxy)butanoyl]oxy}benzoic acid] | – | – | – | 62% | 77% | YES | 6% | 15% | 44% | – | – | inhibition at 1 µM [1, 9]: 21%
O=C(CCCCO[N+](=O)[O-])Oc1ccccc1C(=O)O [(3), 2-{[5-(nitrooxy)pentanoyl]oxy}benzoic acid] | – | – | – | 66% | 77% | YES | 5% | 27% | 43% | – | – | inhibition at 1 µM [1, 9]: 11%
O=C(CCC(CO[N+](=O)[O-])O[N+](=O)[O-])Oc1ccccc1C(=O)O (centres unmarked) [Compound (6), 2-{[4,5-bis(nitrooxy)pentanoyl]oxy}benzoic acid] | – | 4.08 h | >85% | – | – | – | – | – | – | 0.50 ± 0.22 mm | 29.95 ± 7.30 % | –
O=C(CCCC(CO[N+](=O)[O-])O[N+](=O)[O-])Oc1ccccc1C(=O)O (centres unmarked) [Compound (7), 2-{[5,6-bis(nitrooxy)hexanoyl]oxy}benzoic acid] | – | 4.87 h | >85% | – | – | – | – | – | – | 0.85 ± 0.64 mm | 26.19 ± 3.58 % | –
CCC(=O)Oc1ccccc1C(=O)O [Propanoylsalicylic acid, reference compound] | – | – | – | – | – | – | – | – | – | 52.00 ± 11.78 mm | 48.13 ± 6.54% | –

Continued, in another order:

melting point | half-life at 250 μM [5] | pH 1 stability (% after 3 h) [6] | SMILES | COX1 inhibition % [1, 7] | COX1 inhibition % [1, 8] | Type of inhibition “Irreversibile” [1] | inhibition at 1 µM [2] | inhibition at 10 µM [2] | inhibition at 30 µM [2] | Gastrotoxicity Lesion index (mm) [3] | Anti inflammatory activity Paw edema (% increase) [4] | also measured
– | 1.37 h | >90% | CC(=O)Oc1ccccc1C(=O)O [Acetylsalicylic acid, reference compound] | 27% | 53% | YES | 2% | 5% | 20% | 44.75 ± 4.66 mm | 32.95 ± 3.19 % | inhibition at 1 µM ([1]; RAW264.7, 1 μM, resting RAW 264.7 macrophages, arachidonic acid 1 μM, read-out: COX1 inhibition %): < 2%
152 to 153.9 °C | – | – | O=C(CCOc1no[n+]([O-])c1-c1ccccc1)Oc1ccccc1C(=O)O [Compound 12, 2-[(3-{[5-oxido-4-phenyl-1,2,5-oxadiazol-3-yl]oxy}propanoyl)oxy]benzoic acid] | – | – | – | – | – | – | – | – | –
– | 0.26 h | >90% | O=C(CCO[N+](=O)[O-])Oc1ccccc1C(=O)O [Compound (1), 2-{[3-(nitrooxy)propanoyl]oxy}benzoic acid] | – | – | – | – | – | – | – | – | –
169 to 170 °C | 0.44 h | >90% | O=C(CCOc1no[n+]([O-])c1S(=O)(=O)c1ccccc1)Oc1ccccc1C(=O)O [Compound (11), 2-[(3-{[5-oxido-4-(phenylsulfonyl)-1,2,5-oxadiazol-3-yl]oxy}propanoyl)oxy]benzoic acid] | – | – | – | – | – | – | 0.50 ± 0.31 mm | 34.88 ± 4.69 % | –
